Consider 2 compounds from PMC4231100, “Cerebral Artery Alpha-1 AR Subtypes: High Altitude Long-Term Acclimatization Responses” (PLoS ONE, 2014).

For assay [1], the target named is T1, α1A-AR (Ovis aries, UniProt A0ACI6NWI5).
T1 construct: gene ADRA1A
T1 sequence (A0ACI6NWI5 1-466): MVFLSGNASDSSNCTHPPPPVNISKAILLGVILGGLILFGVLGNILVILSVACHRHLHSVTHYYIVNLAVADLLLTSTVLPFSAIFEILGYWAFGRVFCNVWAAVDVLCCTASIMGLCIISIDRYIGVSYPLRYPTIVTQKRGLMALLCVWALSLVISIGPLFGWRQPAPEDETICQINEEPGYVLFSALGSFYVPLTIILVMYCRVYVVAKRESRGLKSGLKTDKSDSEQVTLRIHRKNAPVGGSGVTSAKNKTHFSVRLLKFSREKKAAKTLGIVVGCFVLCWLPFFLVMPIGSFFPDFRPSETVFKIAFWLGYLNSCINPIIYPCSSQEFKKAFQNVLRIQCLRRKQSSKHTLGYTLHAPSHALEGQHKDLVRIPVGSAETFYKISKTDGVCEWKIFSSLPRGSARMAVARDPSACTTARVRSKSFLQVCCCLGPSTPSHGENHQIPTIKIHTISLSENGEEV
The experiment in a line: functional antagonism (KB) of phenylephrine-induced contraction in isolated arteries.

The target in assay [2] is T2, α1D-AR (Ovis aries, UniProt A0ACI6RHM3).
T2 construct: gene ADRA1D
T2 sequence (A0ACI6RHM3 1-564): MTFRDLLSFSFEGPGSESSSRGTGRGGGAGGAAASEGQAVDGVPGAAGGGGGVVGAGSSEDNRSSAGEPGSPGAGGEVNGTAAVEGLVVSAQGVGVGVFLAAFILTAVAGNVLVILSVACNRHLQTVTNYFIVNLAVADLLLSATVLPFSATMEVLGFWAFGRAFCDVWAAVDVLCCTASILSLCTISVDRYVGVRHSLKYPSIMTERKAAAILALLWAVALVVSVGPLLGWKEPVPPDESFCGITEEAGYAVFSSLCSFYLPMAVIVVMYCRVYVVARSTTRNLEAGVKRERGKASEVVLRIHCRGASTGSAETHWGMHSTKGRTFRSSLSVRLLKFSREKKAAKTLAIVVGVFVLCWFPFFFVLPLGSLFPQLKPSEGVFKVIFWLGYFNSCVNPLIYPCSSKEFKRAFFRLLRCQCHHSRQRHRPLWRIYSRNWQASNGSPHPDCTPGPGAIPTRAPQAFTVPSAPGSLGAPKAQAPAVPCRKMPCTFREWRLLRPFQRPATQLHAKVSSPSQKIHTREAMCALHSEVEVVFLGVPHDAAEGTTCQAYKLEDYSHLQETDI
The description is as above.

Where a name gives a salt, the structure may show the parent alone.

The Kb is the affinity of an antagonist, worked out from how it opposes an agonist. Low readings indicate higher antagonist affinity, high ones lower antagonist affinity. Turning to `COc1cccc(OC)c1OCCNCC1COc2ccccc2O1` (centres unmarked) [WB, 2-([2,6-Dimethoxyphenoxyethyl]a-minomethyl)-1,4-benzodioxane hydrochloride], the antagonist equilibrium constant (Kb) in assay [1] was 11 nM.

`COc1ccccc1N1CCN(CCN2C(=O)CC3(CCCC3)CC2=O)CC1` [BMY, 8-(2-[4-(2-Methoxyphenyl)-1-piperazinyl]ethyl)-8-azaspiro(4.5)decane-7,9-dione] gave a Kb in assay [2] of 6.7 nM.
